Assay results taken from patent USRE47689E1, “Compounds for treating spinal muscular atrophy” (PTC Therapeutics, Inc., priority 2011, dated 2019).
Where two headings read alike, the source gives them in different places.

Legend:
[1] = test system: SMN2 minigene (full length SMN2 minigene mRNA containing SMN2 exon 7); experiment: SMN2 minigene mRNA splicing RT-qPCR assay in cultured cells; type: cell-based, human; details: Homo sapiens, HEK293-H, read-out: EC1.5x for production of full length SMN2 mRNA
Procedure, shortened: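 HEK293H cells stably carrying the SMN2-A minigene treated 24 h at 37° C with compound (DMSO, 200× stock), then lysed. Multiplex RT-qPCR (SMN primers 0.4 μM final; 40 cycles) measures full-length exon 7-containing minigene mRNA, normalized to GAPDH and to vehicle; EC1.5x derived and binned by stars.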

Smn protein = Smn protein assay in cultured cells (SMN HTRF); type: cell-based, human; details: 48 hours; for EC1.5x (concentration giving 1.5-fold Smn protein increase): SMA Type 1 patient fibroblast cells (GM03813), 7-point concentration curve, SMN HTRF, concentration producing 1.5 times Smn protein vs DMSO vehicle control, read-out: EC1.5x for Smn protein expression; for maximum fold (Fold) increase of Smn protein: SMA patient fibroblast cells, 7-point concentration data, fold increase relative to vehicle control (SMN HTRF)
Procedure, shortened: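 Lysates in RIPA with protease inhibitors are incubated overnight at room temperature with HTRF anti-SMN antibodies. EC1.5x is derived from fold increase in ΔF over vehicle.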

[2] = HEK293H cells stably transfected with SMN2-A minigene, 24 hours, 7-point concentration curve, 1.5-fold relative to vehicle-treated cells

melting point	SMILES	EC (1.5-fold) [1, 2]	EC1.5x (concentration giving 1.5-fold Smn protein increase) (Smn protein)	maximum fold (Fold) increase of Smn protein (Smn protein)	EC (1.5-fold) ([1]; 24 h)
212 to 214 °C	Cc1cn2cc(-c3cc4ccc(N5CCN(C)CC5)cc4oc3=O)cc2cn1 [Compound 590, 7-(4-methylpiperazin-1-yl)-3-(3-methylpyrrolo[1,2-a]pyrazin-7-yl)-2H-chromen-2-one]	< 0.1 µM	< 300 nM	***** (fold increase >1.65)	
231 to 233 °C	Cc1cn2cc(-c3cc4ccc(N5CCN(CCO)CC5)cc4oc3=O)nc2c(C)n1 [Compound 654, 3-(6,8-dimethylimidazo[1,2-a]pyrazin-2-yl)-7-[4-(2-hydroxyethyl)piperazin-1-yl]-2H-chromen-2-one]	< 0.1 µM	< 300 nM	**** (fold increase between >1.5 and ≤1.65)	
224 to 226 °C	Cc1cccn2cc(-c3cc4ccc(N5CCN(C)CC5)cc4oc3=O)nc12 [Compound 84, 3-(8-methylimidazo[1,2-a]pyridin-2-yl)-7-(4-methylpiperazin-1-yl)-2H-chromen-2-one]	0.3 to 1 µM	1000 to 3000 nM	*** (fold increase between >1.35 and ≤1.5)	
182 to 185 °C	CCN1CCN(c2ccc3cc(-c4cc5c(C)nc(C)cn5c4)c(=O)oc3c2)CC1 [Compound 674, 3-(1,3-dimethylpyrrolo[1,2-a]pyrazin-7-yl)-7-(4-ethylpiperazin-1-yl)-2H-chromen-2-one]	< 0.1 µM	< 300 nM	***** (fold increase >1.65)	
173 to 175 °C	CCN1CCN(c2ccc3cc(-c4cc5c(C)nc(C)cn5c4)c(=O)oc3c2)C[C@@H]1C [Compound 694, 3-(1,3-dimethylpyrrolo[1,2-a]pyrazin-7-yl)-7-[(3S)-4-ethyl-3-methylpiperazin-1-yl]-2H-chromen-2-one]	< 0.1 µM	< 300 nM	**** (fold increase between >1.5 and ≤1.65)	

Second part, the molecule before the results:

SMILES	melting point	EC (1.5-fold) [1, 2]	EC1.5x (concentration giving 1.5-fold Smn protein increase) (Smn protein)	maximum fold (Fold) increase of Smn protein (Smn protein)	EC (1.5-fold) ([1]; 24 h)
Cc1nccn2cc(-c3cc4ccc(N5C[C@@H](C)N[C@@H](C)C5)cc4oc3=O)cc12 [Compound 554, 7-[(3R,5S)-3,5-dimethylpiperazin-1-yl]-3-(1-methylpyrrolo[1,2-a]pyrazin-7-yl)-2H-chromen-2-one]	200 to 203 °C	< 0.1 µM	< 300 nM	***** (fold increase >1.65)	
O=c1oc2cc(N3CCNCC3)ccc2cc1-c1cn2cccnc2n1 [Cpd 89, 3-(imidazo[1,2-a]pyrimidin-2-yl)-7-(piperazin-1-yl)-2H-chromen-2-one]	286 °C (dec.)	0.1 to 0.3 µM	300 to 1000 nM	**** (fold increase between >1.5 and ≤1.65)	
Cc1ccc2nc(-c3cc4ccc(CN5CCC(O)C5)cc4oc3=O)cn2c1 (stereo not shown) [Compound 253, 7-[(3-hydroxypyrrolidin-1-yl)methyl]-3-(6-methylimidazo[1,2-a]pyridin-2-yl)-2H-chromen-2-one]	227 to 230 °C	1 to 3 µM		* (maximum fold increase of ≤1.2)	
O=c1oc2cc(N3CCNCC3)ccc2cc1-c1cccc(F)n1 [Compound 380, 3-(6-fluoropyridin-2-yl)-7-(piperazin-1-yl)-2H-chromen-2-one]	196 to 198 °C			** (fold increase between >1.2 and ≤1.35)	0.3 to 1 µM
Cc1ccc2nc(-c3cc4ccc(N5CCN[C@H](C)C5)cc4oc3=O)cn2c1 [Compound 220, 3-(6-methylimidazo[1,2-a]pyridin-2-yl)-7-[(3R)-3-methylpiperazin-1-yl]-2H-chromen-2-one]	185 to 188 °C	0.1 to 0.3 µM		** (fold increase between >1.2 and ≤1.35)	
